In brackets after ≈: the same amount, converted by molar mass. Several values for one entry are separate records, joined by “and”; a condition that tells them apart may be missing. Equal values may be shown once. Read-outs that look alike come from different tables or passages of the source.
What was measured:
[1] = Solubility by isothermal saturation (shake flask) method; assay type: physicochemical
Experimental: Solubility of drug was measured by the classical shake flask method at five temperatures: 293, 298, 303, 308 and 313 ± 0.2 K. This method determines the concentration of a test substance in a saturated solution, i.e., in equilibrium with the solid phase at a strictly fixed temperature. The compound studied and the selected solvent were placed into glass ampoules and stirred in an air thermostat.
The solid phase was sedimentated after stirring within 2 h. Then, the solutions were centrifuged using a thermostatic centrifuge Biofuge Stratos (Thermo scientific, Germany) at the appropriate temperature of the experiment for 5 min. The solid phase was removed by filtration using a filter MILLEX®HA 0.22 μm (Millipore, Ireland). The resulting solution, if necessary, was diluted with an appropriate solvent and examined on a Carry 50 spectrophotometer (Varian, Palo Alto, CA, USA, Software Version 3.00 (339)) in the ultraviolet region of the spectrum (operating wavelength range λ = 200–400 nm) with an accuracy of 2–4%.
The experimental value of solubility is an average value of three independent experiments. The absorption maximums for isavuconazole in the selected solvents have been determined at 274 nm in buffers solutions (Figure 4) and as 283 nm in hexane and alcohols (Figure S8). The calibration was carried out at room temperature using the solutions with known concentrations of drug in selected solvents.
The mole fraction concentration was calculated based on molarity (S, mol·L^−1) using Equation (8):(8) x=M2S/S(M2−M1)+1000ρ, where M1 and M2 are the molar masses of […], respectively, and ρ (g·cm^−3) is the density of the pure solvents. Densities of buffers solutions (pH 1.2, 2.0 and 7.4) were measured using densitometer DMA 4500 (Anton Paar, Austria) and published earlier. The values of densities using for conversion are given in Table S4 (Supporting Information).

[2] = Vapor pressure by transpiration (inert gas-carrier transfer) method; sublimation thermodynamic functions; assay type: physicochemical; details: for lnp: p in Pa
Experimental: The thermodynamic functions of sublimation were calculated as the fitting coefficients of the Clarke and Glew equation [17]:(1) Rlnp/p^0=ΔcrgGm°(θ)/θ+ΔcrgHm°(θ)(1/θ−1/T)+ΔcrgCp,m°(θ)(θ/T−1+lnT/θ) where ΔcrgHm°(θ) is the standard molar sublimation enthalpy, ΔcrgGm°(θ) is the standard molar Gibbs energy of sublimation, and ΔcrgCp,m°(θ) is the difference between the constant pressure standard molar heat capacity Cp,m°(g) of the gaseous compound and the constant pressure standard molar heat capacity Cp,m°(cr) of the crystalline compound. The value is the arbitrary reference temperature θ = 298.15 K; p^0 = 10^5 Pa is the reference pressure.
The transpiration method was used for the sublimation experiment. A stream of an inert gas (nitrogen) was passed over a sample at the constant temperature and flow rate; saturation of the gas with the substance vapor was achieved by low transpiration rate of gas. Then, the sublimated quantity of condensed vapor was determined. The volume of the inert gas and the amount of the sublimated material were used for calculation the vapor pressure over the sample of compound at this temperature. The following procedure was used for determination the amount of sublimed substance. The condensed sample was dissolved in a known volume of solvent Vsol. The mass of the substance was determined by the measurement of absorbance A of its solution (spectrophotometer Cary-50, Varian, Palo Alto, CA, USA, Software Version 3.00 (339)). According to the Lambert–Beer law the concentration of the solution c (mol·L^−1) can express knowing a value of the extinction coefficient ε (l·mol^−1·cm^−1) of the studied compound dissolved in the solvent and an absorbing path length (l):A = εcl(5) where l is an absorbing path length. Calculation the mass of sublimed compound was performed according to the equation:m = cVsolM(6)
M is the molar mass of the studied substance.
The vapor pressure p at each temperature was determined from the amount of the substance collected within a known time:p = mRTa/VM(7) where V is the volume of the gaseous nitrogen evaluated from the time measurement and the flow rate at the flow meter temperature Ta and the atmospheric pressure. Uncertainties for transpiration experiment parameters (T, m, Ta, V) are reported as standard deviations (Table 1). The combined standard uncertainty of vapor pressure measurements were estimated taking into account uncertainties of all variables involved in eq 7.
The details of equipment and experimental procedure are given in [33]. The sublimation technique was tested with benzoic acid as standard. The experimental vapor pressure values were obtained in the temperature interval of (307–385) K and were in good agreement with the results of studies within the limits of experimental error (Figure S7). The standard sublimation enthalpy of benzoic acid measured by us was 90.5 ± 0.3 kJ·mol^−1 and consistent with recommended by IUPAC value—89.7 ± 0.5 kJ·mol^−1 [38]. Each experiment at fixed temperature was repeated three times with the standard deviation of up to 5%.

[3] = 298.15 K, experimental, Clarke and Glew equation

solubility ([1]; aqueous buffer solutions, pH 7.4, buffers pH 7.4, 2.0, 1.2, 298.15 K, read-out: solubility in aqueous buffer solutions): 8.13 to 42.4 µM (≈ 3.56 to 18.5 µg/mL)
solubility ([1]; buffer pH 7.4, pH 7.4, aqueous buffer, thermodynamic from solid, buffer pH 7.4, 293.15 K, read-out: solubility S·10^6): 6.67 µM (≈ 2.92 µg/mL)
solubility ([1]; buffer pH 7.4, pH 7.4, aqueous buffer, thermodynamic from solid, buffer pH 7.4, 298.15 K, read-out: solubility S·10^6): 8.13 µM (≈ 3.56 µg/mL)
solubility ([1]; buffer pH 7.4, pH 7.4, aqueous buffer, thermodynamic from solid, buffer pH 7.4, 303.15 K, read-out: solubility S·10^6): 10 µM (≈ 4.37 µg/mL)
solubility ([1]; buffer pH 7.4, pH 7.4, aqueous buffer, thermodynamic from solid, buffer pH 7.4, 308.15 K, read-out: solubility S·10^6): 12.2 µM (≈ 5.32 µg/mL)
solubility ([1]; buffer pH 7.4, pH 7.4, aqueous buffer, thermodynamic from solid, buffer pH 7.4, 313.15 K, read-out: solubility S·10^6): 14.5 µM (≈ 6.37 µg/mL)
solubility in buffer pH 7.4 lower than in pH 1.2 ([1]; buffer pH 7.4 vs pH 1.2): 80%
solubility of uncharged forms in buffer pH 7.4 relative to ionized forms in buffer pH 1.2 ([1]; buffer pH 7.4 vs pH 1.2): five times lower
solubility ([1]; ethanol, 298.15 K, read-out: solubility): 180000 µM (≈ 78700 µg/mL)
solubility ([1]; hexane, organic solvent or mixture, thermodynamic from solid, hexane, 293.15 K, read-out: solubility S·10^4): 423 µM (≈ 185 µg/mL)
solubility ([1]; hexane, organic solvent or mixture, thermodynamic from solid, hexane, 298.15 K, read-out: solubility S·10^4): 537 µM (≈ 235 µg/mL)
solubility ([1]; hexane, organic solvent or mixture, thermodynamic from solid, hexane, 303.15 K, read-out: solubility S·10^4): 677 µM (≈ 296 µg/mL)
solubility ([1]; hexane, organic solvent or mixture, thermodynamic from solid, hexane, 308.15 K, read-out: solubility S·10^4): 847 µM (≈ 371 µg/mL)
solubility ([1]; hexane, organic solvent or mixture, thermodynamic from solid, hexane, 313.15 K, read-out: solubility S·10^4): 1050 µM (≈ 459 µg/mL)
solubility ([1]; seven solvents (buffers pH 1.2, 2.0, 7.4; hexane; alcohols), seven solvents, 293.15 to 313.15 K, read-out: solubility, span over solvents): 6.7 to 300000 µM (≈ 2.93 to 131000 µg/mL)
standard molar Gibbs energy of sublimation ΔcrgGm°(298.15 K) [2, 3]: 16.5 ± 0.048 kcal/mol
standard molar Gibbs energy of sublimation ΔcrgGm°(298.15 K) ([2]; 298.15 K, experimental, Clarke and Glew equation, listed as Isavuconazole): 16.5 kcal/mol
vapor pressure 10^3 p ([2]; 365.15 K): 1.95 Pa
saturated vapor pressure values ([2]; 365.15–383.15 K): 0.001–0.01 Pa
vapor pressure 10^3 p ([2]; 367.15 K): 2.50 Pa
vapor pressure 10^3 p ([2]; 369.15 K): 3.19 Pa
vapor pressure 10^3 p ([2]; 371.15 K): 4.02 Pa
vapor pressure 10^3 p ([2]; 372.15 K): 4.55 Pa
vapor pressure 10^3 p ([2]; 373.15 K): 5.11 Pa
vapor pressure 10^3 p ([2]; 374.15 K): 5.72 Pa
vapor pressure 10^3 p ([2]; 376.15 K): 7.22 Pa
vapor pressure 10^3 p ([2]; 378.15 K): 8.83 Pa
vapor pressure 10^3 p ([2]; 379.15 K): 9.83 Pa
vapor pressure 10^3 p ([2]; 380.15 K): 11.19 Pa
vapor pressure 10^3 p ([2]; 381.15 K): 12.30 Pa
vapor pressure 10^3 p ([2]; 382.15 K): 13.79 Pa
vapor pressure 10^3 p ([2]; 383.15 K): 15.37 Pa
lnp ([2]; 365.15 K): −6.241
lnp ([2]; 367.15 K): −5.991
lnp ([2]; 369.15 K): −5.749
lnp ([2]; 371.15 K): −5.515
lnp ([2]; 372.15 K): −5.393
lnp ([2]; 373.15 K): −5.277
lnp ([2]; 374.15 K): −5.163
lnp ([2]; 376.15 K): −4.931
lnp ([2]; 378.15 K): −4.729
lnp ([2]; 379.15 K): −4.622
lnp ([2]; 380.15 K): −4.493
lnp ([2]; 381.15 K): −4.398
lnp ([2]; 382.15 K): −4.283
lnp ([2]; 383.15 K): −4.175
ΔcrgSm°(298.15 K) ([2]; sublimation, 298.15 K): 230.4 ± 4.6 J·mol^−1·K^−1
ΔcrgCp,m° ([2]; sublimation, gas minus crystal heat capacity): −71.8 J·mol^−1·K^−1
SMILES: C[C@@H](c1nc(-c2ccc(C#N)cc2)cs1)[C@](O)(Cn1cncn1)c1cc(F)ccc1F [IVZ, Isavuconazole]
standard molar enthalpy of sublimation ΔcrgHm°(298.15 K) [2, 3]: 33.01 kcal/mol and 33.01 ± 0.12 kcal/mol

Reference: PMC8398847, “Isavuconazole: Thermodynamic Evaluation of Processes Sublimation, Dissolution and Partition in Pharmaceutically Relevant Media” (Molecules, 2021)
